Literature values, collected in patent publication US10221122B2, “Enantiospecific process for the preparation of (R) and (S) enantiomers of sex pheromonoes of the long tailed mealy bug” (Council of Scientific & Industrial Research, priority 2015, dated 2019).
Read-outs that look alike come from different tables or passages of the source.

Assays:
American cockroach = conditions: J. Chem. Ecol. 1983, 9(3), 433-48
[1] = system: males of the American cockroach; conditions: Agric. Biol. Chem. 1979, 43(9), 1967-1974
male mealybugs [2] = conditions: field trials; J. Org. Chem. 2013, 78, 6281-6284
male mealybugs [3] = conditions: attraction lasting three months; reported by Miller group

## CCC(=O)OC1CC2CCC1(C)C2(C)C (single isomer, unassigned; (-)) [(−)-bornyl propionate]
American cockroach; at 0.5 mg dose
  sex pheromonal activity: weak activity

## CC(=O)OC1CC2CCC1(C)C2(C)C (single isomer, unassigned; (+)) [(+)-bornyl acetate]
American cockroach; at 0.05 mg
  sex pheromonal activity: showed the activity
[1]
  excitation of males showing the typical sexual response: excite males of the American cockroach

## CC(=O)OCC[C@@]1(C)C=CCC1(C)C [(S)-(+)-enantiomer, 2-[(1S)-1,5,5-trimethylcyclopent-2-en-1-yl]ethyl acetate]
Male mealybugs [2]
  attractiveness to male mealybugs: highly attractive

## CC(=O)OCCC1(C)C=CCC1(C)C (racemic) [racemic form of the pheromone]
Male mealybugs [3]
  amount sufficient to attract male mealybugs: 25 µg

## CC(=O)OCC[C@]1(C)C=CCC1(C)C [(R)-(−)-enantiomer, 2-[(1R)-1,5,5-trimethylcyclopent-2-en-1-yl]ethyl acetate]
Male mealybugs [2]
  attractiveness to male mealybugs: neither attractive nor inhibitory

## CCC(=O)OC1CC2CCC1(C)C2(C)C (stereo not shown) [Ic]
American cockroach; at 0.05 mg
  sex pheromonal activity: showed the activity
